Measurements published in the supplement of paper PMC11061612.

Assays:
[1] = test system: OVCAR-5 (Ovarian Carcinoma); assay: combination Emax (second highest fraction inhibited in the dose matrix, 72 h); higher = more inhibition; extreme values may be limits of the assay
Summary of the method: (§1)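 After 24 hours at 37°C and 5% CO2 in 1536-well plates, cells in DMEM/F12 or RPMI plus 10% FBS received two-drug dose matrices for 72 hours. Viability came from CellTiter-Glo 2.0 luminescence and was scaled as inhibition, anchored at 0 by vehicle wells and at 1 by blank wells. Combination Emax is taken as the second-highest inhibition in the matrix, and Bliss excess as the observed combination effect less EA + EB − EA·EB, with EA and EB the single-agent effects.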

[2] = test system: MHH-CALL-2 (B-Lymphoblastic Leukemia); assay: as above
Summary of the method: as §1

[3] = test system: Hs-746T (Gastric Carcinoma); assay: as above
Summary of the method: as §1

A673 (Ewing's Sarcoma) = assay: as above
Summary of the method: as §1

[4] = test system: SAS (Oral Cavity Carcinoma); assay: as above
Summary of the method: as §1

[5] = test system: KMRC-20 (Kidney Carcinoma); assay: Bliss excess, mean over the matrix (fraction); higher = more synergy
Summary of the method: as §1

[6] = test system: Detroit562 (Head and Neck Carcinoma); assay: as above
Summary of the method: as §1

[7] = test system: SNU-16 (Gastric Carcinoma); assay: as above
Summary of the method: as §1

[8] = test system: LS-123 (Colorectal Carcinoma); assay: as above
Summary of the method: as §1

CAL-72 (Osteosarcoma) = assay: as above
Summary of the method: as §1

BE2-M17 (Neuroblastoma) = assay: as above
Summary of the method: as §1

[9] = test system: MHH-CALL-2 (B-Lymphoblastic Leukemia); assay: as above
Summary of the method: as §1

[10] = test system: NUGC-4 (Gastric Carcinoma); assay: as above
Summary of the method: as §1

GAMG (Glioblastoma) = assay: as above
Summary of the method: as §1

[11] = test system: HeLa (Cervical Carcinoma); assay: as above
Summary of the method: as §1

NCI-H2052 (Mesothelioma) = assay: as above
Summary of the method: as §1

[12] = test system: TGBC1TKB (Biliary Tract Carcinoma); assay: as above
Summary of the method: as §1

[13] = test system: LNZTA3WT4 (Low Grade Glioma); assay: as above
Summary of the method: as §1

EW-11 (Ewing's Sarcoma) = assay: as above
Summary of the method: as §1

[14] = test system: SAS (Oral Cavity Carcinoma); assay: as above
Summary of the method: as §1
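Wherever Bliss excess, mean over the matrix is given: after 72 h of two-drug dosing.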

In the case of COc1nnc2ccc(N3CCC(c4ccc(OCCN5CCN(C)C(=O)[C@H]5C)cc4)CC3)nn12 [AZD5153] + Cn1cnc2c(F)c(Nc3ccc(Br)cc3Cl)c(C(=O)NOCCO)cc21 [Selumetinib] (first compound max 1 µM, 7x7, partner max 10 µM), the “combination Emax” value [1] is reported as 0.685, the “combination Emax” value [2] is reported as 0.432 and the “combination Emax” value [3] is reported as 0.731. For the same compound, the “combination Emax” value (A673 (Ewing's Sarcoma)) was 0.604, the “combination Emax” value [4] was 0.86 and the Bliss excess [5] was -0.08. It also gave a Bliss excess [6] of -0.0316, a Bliss excess [7] of -0.0058 and a Bliss excess [8] of 0.0261. It also gave a Bliss excess (CAL-72 (Osteosarcoma)) of -0.0414, a Bliss excess (BE2-M17 (Neuroblastoma)) of 0.0139 and a Bliss excess [9] of -0.0438. The Bliss excess [10] was 0.0186, the Bliss excess (GAMG (Glioblastoma)) was -0.0192 and the Bliss excess [11] was -0.0409. For the same compound, the Bliss excess (NCI-H2052 (Mesothelioma)) was 0.0301, the Bliss excess [12] was 0.0517 and the Bliss excess [13] was -0.143. For the same compound, the Bliss excess (EW-11 (Ewing's Sarcoma)) was -0.0633 and the Bliss excess [14] was 0.0163.

With COc1nnc2ccc(N3CCC(c4ccc(OCCN5CCN(C)C(=O)[C@H]5C)cc4)CC3)nn12 [AZD5153] + C[C@@H]1COCCN1C2=NC(=NC(=C2)C3(CC3)[S@](=N)(=O)C)C4=C5C=CNC5=NC=C4 [AZD6738] (first compound max 1 µM, 7x7, partner max 10 µM) the “combination Emax” value [1] was 0.744, the “combination Emax” value [2] was 0.932 and the “combination Emax” value [3] was 0.63. The “combination Emax” value (A673 (Ewing's Sarcoma)) was 0.84, the “combination Emax” value [4] was 0.921 and the Bliss excess [5] was 0.0821. It also gave a Bliss excess [6] of -0.0241, a Bliss excess [7] of -0.0408 and a Bliss excess [8] of 0.0091. The Bliss excess (CAL-72 (Osteosarcoma)) was -0.0087, the Bliss excess (BE2-M17 (Neuroblastoma)) was 0.0293 and the Bliss excess [9] was -0.0397. It also gave a Bliss excess [10] of 0.0188, a Bliss excess (GAMG (Glioblastoma)) of 0.04 and a Bliss excess [11] of -0.0406. For the same compound, the Bliss excess (NCI-H2052 (Mesothelioma)) was -0.0497, the Bliss excess [12] was 0.0016 and the Bliss excess [13] was 0.0648. The Bliss excess (EW-11 (Ewing's Sarcoma)) was 0.0006 and the Bliss excess [14] was -0.0483.

Cn1cnc2c(F)c(Nc3ccc(Br)cc3Cl)c(C(=O)NOCCO)cc21 [Selumetinib] + C=CCn1c(=O)c2cnc(Nc3ccc(N4CCN(C)CC4)cc3)nc2n1-c1cccc(C(C)(C)O)n1 [AZD1775] (first compound max 10 µM, partner max 1 µM) was tested, and the “combination Emax” value [1] was 0.58, the “combination Emax” value [2] was 0.793 and the “combination Emax” value [3] was 0.636. The “combination Emax” value (A673 (Ewing's Sarcoma)) was 0.203, the “combination Emax” value [4] was 0.678 and the Bliss excess [5] was -0.0682. For the same compound, the Bliss excess [6] was 0.0123, the Bliss excess [7] was 0.0433 and the Bliss excess [8] was 0.0099. The Bliss excess (CAL-72 (Osteosarcoma)) was -0.117, the Bliss excess (BE2-M17 (Neuroblastoma)) was -0.11 and the Bliss excess [9] was -0.0087. It also gave a Bliss excess [10] of -0.0286, a Bliss excess (GAMG (Glioblastoma)) of 0.0063 and a Bliss excess [11] of -0.0826. It also gave a Bliss excess (NCI-H2052 (Mesothelioma)) of -0.0747, a Bliss excess [12] of 0.0366 and a Bliss excess [13] of -0.0443. It also gave a Bliss excess (EW-11 (Ewing's Sarcoma)) of -0.0464 and a Bliss excess [14] of 0.0324.

With CC1(C)CCC(CN2CCN(c3ccc(C(=O)NS(=O)(=O)c4ccc(NCC5CCOCC5)c([N+](=O)[O-])c4)c(Oc4cnc5[nH]ccc5c4)c3)CC2)=C(c2ccc(Cl)cc2)C1 [Venetoclax] + Cn1cnc2c(F)c(Nc3ccc(Br)cc3Cl)c(C(=O)NOCCO)cc21 [Selumetinib] (first compound max 1 µM, 7x7, partner max 3 µM) the “combination Emax” value [1] was 0.572, the “combination Emax” value [2] was 0.482 and the “combination Emax” value [3] was 0.242. For the same compound, the “combination Emax” value (A673 (Ewing's Sarcoma)) was 0.65, the “combination Emax” value [4] was 0.368 and the Bliss excess [5] was 0.0022. It also gave a Bliss excess [6] of -0.0516, a Bliss excess [7] of -0.0052 and a Bliss excess [8] of -0.0512. The Bliss excess (CAL-72 (Osteosarcoma)) was -0.0593, the Bliss excess (BE2-M17 (Neuroblastoma)) was -0.0116 and the Bliss excess [9] was 0.0653. For the same compound, the Bliss excess [10] was -0.0467, the Bliss excess (GAMG (Glioblastoma)) was -0.0576 and the Bliss excess [11] was -0.0369. The Bliss excess (NCI-H2052 (Mesothelioma)) was -0.0126, the Bliss excess [12] was -0.0542 and the Bliss excess [13] was -0.0321. The Bliss excess (EW-11 (Ewing's Sarcoma)) was -0.0583 and the Bliss excess [14] was -0.0533.

CC1(C)CCC(CN2CCN(c3ccc(C(=O)NS(=O)(=O)c4ccc(NCC5CCOCC5)c([N+](=O)[O-])c4)c(Oc4cnc5[nH]ccc5c4)c3)CC2)=C(c2ccc(Cl)cc2)C1 [Venetoclax] + C=CCn1c(=O)c2cnc(Nc3ccc(N4CCN(C)CC4)cc3)nc2n1-c1cccc(C(C)(C)O)n1 [AZD1775] (first compound max 1 µM, partner max 1 µM) was tested, and the “combination Emax” value [1] was 0.75, the “combination Emax” value [2] was 0.681 and the “combination Emax” value [3] was 0.481. The “combination Emax” value (A673 (Ewing's Sarcoma)) was 0.862, the “combination Emax” value [4] was 0.761 and the Bliss excess [5] was -0.044. It also gave a Bliss excess [6] of -0.0478, a Bliss excess [7] of -0.0478 and a Bliss excess [8] of -0.0165. It also gave a Bliss excess (CAL-72 (Osteosarcoma)) of 0.0256, a Bliss excess (BE2-M17 (Neuroblastoma)) of -0.0256 and a Bliss excess [9] of -0.0382. The Bliss excess [10] was -0.0733, the Bliss excess (GAMG (Glioblastoma)) was 0.0112 and the Bliss excess [11] was -0.0459. For the same compound, the Bliss excess (NCI-H2052 (Mesothelioma)) was -0.0145, the Bliss excess [12] was -0.039 and the Bliss excess [13] was 0.0509. For the same compound, the Bliss excess (EW-11 (Ewing's Sarcoma)) was 0.0341 and the Bliss excess [14] was -0.0073.

With CC1(C)CCC(CN2CCN(c3ccc(C(=O)NS(=O)(=O)c4ccc(NCC5CCOCC5)c([N+](=O)[O-])c4)c(Oc4cnc5[nH]ccc5c4)c3)CC2)=C(c2ccc(Cl)cc2)C1 [Venetoclax] + C[C@@H](Nc1cc(F)cc(F)c1)c1cc(C(=O)N(C)C)cc2c(=O)cc(N3CCOCC3)oc12 [AZD8186] (first compound max 1 µM, 7x7, partner max 3 µM) the “combination Emax” value [1] was 0.214, the “combination Emax” value [2] was 0.294 and the “combination Emax” value [3] was 0.269. The “combination Emax” value (A673 (Ewing's Sarcoma)) was 0.558, the “combination Emax” value [4] was 0.282 and the Bliss excess [5] was -0.0195. For the same compound, the Bliss excess [6] was -0.0336, the Bliss excess [7] was 0.009 and the Bliss excess [8] was 0.0135. It also gave a Bliss excess (CAL-72 (Osteosarcoma)) of -0.0042, a Bliss excess (BE2-M17 (Neuroblastoma)) of -0.0069 and a Bliss excess [9] of 0.0163. For the same compound, the Bliss excess [10] was 0.0298, the Bliss excess (GAMG (Glioblastoma)) was -0.0453 and the Bliss excess [11] was -0.0326. For the same compound, the Bliss excess (NCI-H2052 (Mesothelioma)) was -0.0266, the Bliss excess [12] was -0.0558 and the Bliss excess [13] was -0.0539. The Bliss excess (EW-11 (Ewing's Sarcoma)) was -0.0227 and the Bliss excess [14] was -0.0332.

For COc1nnc2ccc(N3CCC(c4ccc(OCCN5CCN(C)C(=O)[C@H]5C)cc4)CC3)nn12 [AZD5153] + C=CCn1c(=O)c2cnc(Nc3ccc(N4CCN(C)CC4)cc3)nc2n1-c1cccc(C(C)(C)O)n1 [AZD1775] (first compound max 1 µM, partner max 1 µM), the “combination Emax” value [1] was 0.563, the “combination Emax” value [2] was 0.742 and the “combination Emax” value [3] was 0.535. For the same compound, the “combination Emax” value (A673 (Ewing's Sarcoma)) was 0.602, the “combination Emax” value [4] was 0.823 and the Bliss excess [5] was -0.0446. It also gave a Bliss excess [6] of -0.0535, a Bliss excess [7] of -0.0385 and a Bliss excess [8] of -0.0445. It also gave a Bliss excess (CAL-72 (Osteosarcoma)) of -0.0524, a Bliss excess (BE2-M17 (Neuroblastoma)) of 0.0026 and a Bliss excess [9] of -0.0843. The Bliss excess [10] was -0.0478, the Bliss excess (GAMG (Glioblastoma)) was -0.0516 and the Bliss excess [11] was -0.072. The Bliss excess (NCI-H2052 (Mesothelioma)) was -0.0882, the Bliss excess [12] was 0.015 and the Bliss excess [13] was -0.0356. For the same compound, the Bliss excess (EW-11 (Ewing's Sarcoma)) was -0.0976 and the Bliss excess [14] was -0.0302.
